The values that follow are results of earlier work, collected in PubChem BioAssay AID1259409 (Chemical Carcinogenesis Research Information System (CCRIS), 2018).

The test system of the series is rodent chemically induced tumor inhibition, incidence and multiplicity. The experiment in a line: CCRIS tumor inhibitor studies. The following applies: Promoter: NONE USED.

For `NCc1cc(=O)[nH]o1`, the “tumour outcome (control, treated, inhibition, significance)” value by setting is: (Carcinogen: AZOXYMETHANE, 25843-45-2, Dose [Inhibitor]: 0, 0.5 MG/KG IN 2 ML/KG 0.9% SALINE 1/2 D CONCURRENTLY WITH CARCINOGEN AND CONTINUING FOR STUDY DURATION (STUDY DURATION, Route [Inhibitor]: INTRAPERITONEAL, Species: RAT, Strain/Sex: WISTAR/MALE, Target Tissue: Type of Lesion: COLON: ADENOMA, Dose [Carcinogen]: 7.4 MG/KG IN 0.9% SALINE 1/WK FOR 10 WK) 3/17 (18%), 8/19 (42%), -133%, not significant; (Carcinogen: N-METHYL-N'-NITRO-N-NITROSOGUANIDINE, 70-25-7, Dose [Inhibitor]: 0, 0.25 MG/KG IN NACL INJECTED 1/2 D FOR DURATION OF STUDY BEGINNING 1 WK POST CARCINOGEN DOSE (STUDY DURATION: 52 WK), Route [Inhibitor]: INTRAPERITONEAL, Species: RAT, Strain/Sex: WISTAR/MALE, Target Tissue: Type of Lesion: STOMACH: ADENOCARCINOMA, Dose [Carcinogen]: 50 UG/ML IN DRINKING WATER FOR 25 WK) 13/19 (68%), 12/20 (60%), 12%, not significant; (Carcinogen: N-METHYL-N'-NITRO-N-NITROSOGUANIDINE, 70-25-7, Dose [Inhibitor]: 0, 0.5 MG/KG BW 1/2 D FOR DURATION OF STUDY BEGINNING 1 WK POST LAST CARCINOGEN DOSE (STUDY DURATION: 52 WK), Route [Inhibitor]: INTRAPERITONEAL, Species: RAT, Strain/Sex: SHR/MALE, Target Tissue: Type of Lesion: STOMACH: ADENOCARCINOMA, Dose [Carcinogen]: 25 UG/ML IN DRINKING WATER FOR 25 WK) 10/20 (50%), 3/20 (15%), 70%, p<0.05; (Carcinogen: N-METHYL-N'-NITRO-N-NITROSOGUANIDINE, 70-25-7, Dose [Inhibitor]: 0, 0.5 MG/KG BW 1/2 D FOR DURATION OF STUDY BEGINNING 1 WK POST LAST CARCINOGEN DOSE (STUDY DURATION: 52 WK), Route [Inhibitor]: INTRAPERITONEAL, Species: RAT, Strain/Sex: WISTAR/MALE, Target Tissue: Type of Lesion: STOMACH: ADENOCARCINOMA, Dose [Carcinogen]: 25 UG/ML IN DRINKING WATER FOR 25 WK) 1/14 (7%), 0/15 (0%), 100%, not significant; (Carcinogen: N-METHYL-N'-NITRO-N-NITROSOGUANIDINE, 70-25-7, Dose [Inhibitor]: 0, 0.5 MG/KG IN NACL INJECTED 1/2 D FOR DURATION OF STUDY BEGINNING 1 WK POST CARCINOGEN DOSE (STUDY DURATION: 52 WK), Route [Inhibitor]: INTRAPERITONEAL, Species: RAT, Strain/Sex: WISTAR/MALE, Target Tissue: Type of Lesion: STOMACH: ADENOCARCINOMA, Dose [Carcinogen]: 50 UG/ML IN DRINKING WATER FOR 25 WK) 13/19 (68%), 12/18 (67%), 2%, not calculated.

Regarding `CCCCC1OC(=O)C2=CCCCC21` (stereo not given), the “tumour outcome (control, treated, inhibition, significance)” value (Carcinogen: BENZO[A]PYRENE, 50-32-8, Dose [Inhibitor]: 0, 20 MG 3/WK FOR 4 WK ON DAYS OTHER THAN THE CARCINOGEN TREATMENT (STUDY DURATION: 20 WK), Route [Inhibitor]: GAVAGE, Species: MOUSE, Strain/Sex: STRAIN-A/FEMALE, Target Tissue: Type of Lesion: FORESTOMACH: TUMOR, Dose [Carcinogen]: 1 MG IN 0.2 ML COTTONSEED OIL 2/WK FOR 4 WK) is recorded as 13/19 (68%), 2/18 (11%), 84%, p<0.025.

Take `CC(O)CCC(=O)c1ccoc1` (stereo not given): the “tumour outcome (control, treated, inhibition, significance)” value (Carcinogen: 4-(METHYLNITROSAMINO)-1-(3-PYRIDYL)-1-BUTANONE, 64091-91-4, Dose [Inhibitor]: 0, 1 UMOL IN 0.1 ML CORN OIL ONCE 2 HR PRIOR TO CARCINOGEN DOSE (STUDY DURATION: 16 WK), Route [Inhibitor]: GAVAGE, Species: MOUSE, Strain/Sex: STRAIN-A/FEMALE, Target Tissue: Type of Lesion: LUNG: ADENOMA, Dose [Carcinogen]: 10 UMOL IN 0.1 ML SALINE ONCE) is reported as 100%, 100%, 0%, not significant.

For the molecule `CC(C)(C)c1cc(O)ccc1O`, the “tumour outcome (control, treated, inhibition, significance)” value by setting is: (Carcinogen: 7,12-DIMETHYLBENZ[A]ANTHRACENE, 57-97-6, Dose [Inhibitor]: 0.8% IN POWDERED DIET BEGINNING 1 WK POST CARCINOGEN DOSE FOR 51 WK (STUDY DURATION: 52 WK), Route [Inhibitor]: ORAL, Species: RAT, Strain/Sex: SPRAGUE-DAWLEY/FEMALE, Target Tissue: Type of Lesion: EAR DUCT: BENIGN TUMOR, Dose [Carcinogen]: 2.5 MG/100 G BW IN 0.5 ML SESAME OIL ONCE) 7/19 (37%), 5/16 (31%), 15%, not calculated; (Carcinogen: 7,12-DIMETHYLBENZ[A]ANTHRACENE, 57-97-6, Dose [Inhibitor]: 0.8% IN POWDERED DIET BEGINNING 1 WK POST CARCINOGEN DOSE FOR 51 WK (STUDY DURATION: 52 WK), Route [Inhibitor]: ORAL, Species: RAT, Strain/Sex: SPRAGUE-DAWLEY/FEMALE, Target Tissue: Type of Lesion: MAMMARY GLAND: CARCINOMA, Dose [Carcinogen]: 2.5 MG/100 G BW IN 0.5 ML SESAME OIL ONCE) 6/19 (32%), 5/16 (31%), 0.9%, not calculated; (Carcinogen: 7,12-DIMETHYLBENZ[A]ANTHRACENE, 57-97-6, Dose [Inhibitor]: 0.8% IN POWDERED DIET BEGINNING 1 WK POST CARCINOGEN DOSE FOR 51 WK (STUDY DURATION: 52 WK), Route [Inhibitor]: ORAL, Species: RAT, Strain/Sex: SPRAGUE-DAWLEY/FEMALE, Target Tissue: Type of Lesion: MAMMARY GLAND: FIBROADENOMA, Dose [Carcinogen]: 2.5 MG/100 G BW IN 0.5 ML SESAME OIL ONCE) 15/19 (79%), 4/16 (24%), 70%, p<0.001; (Carcinogen: BENZO[A]PYRENE, 50-32-8, Dose [Inhibitor]: 0.03 MMOL/G OF DIET DAILY STARTING 8 D BEFORE AND CONTINUING THROUGH 3 D AFTER CARCINOGEN TREATMENT FOLLOWED BY OBSERVAT, Route [Inhibitor]: ORAL, Species: MOUSE, Strain/Sex: ICR/FEMALE, Target Tissue: Type of Lesion: FORESTOMACH: NEOPLASM, Dose [Carcinogen]: 1 MG IN 0.2 ML CORN OIL 2/WK FOR 4 WK) 94%, 85%, 10%, not significant; (Carcinogen: N-METHYL-N'-NITRO-N-NITROSOGUANIDINE, 70-25-7, N-ETHYL-N-HYDROXYETHYLNITROSAMINE, 13147-25-6, N-METHYLBENZYLNITROSAM, Carcinogen: N-METHYL-N'-NITRO-N-NITROSOGUANIDINE, 70-25-7, N-ETHYL-N-HYDROXYETHYLNITROSAMINE, 13147-25-6, N-METHYLBENZYLNITROSAM, Dose [Inhibitor]: 0, 1% IN DIET FOR 36 WK (STUDY DURATION: 36 WK), Route [Inhibitor]: ORAL, Species: RAT, Strain/Sex: F344/MALE, Target Tissue: Type of Lesion: COLON: CARCINOMA, Dose [Carcinogen]: 100 MG/KG BW MNNG ONCE, 750 MG/KG BW EHEN ONCE, 0.5 MG/KG BW MBN TWICE, 40 MG/KG BW DMH 4 TIMES, 0.05% DBN IN DRINKING W) 10/18 (56%), 4/18 (22%), 61%, not calculated; (Carcinogen: N-METHYL-N'-NITRO-N-NITROSOGUANIDINE, 70-25-7, N-ETHYL-N-HYDROXYETHYLNITROSAMINE, 13147-25-6, N-METHYLBENZYLNITROSAM, Carcinogen: N-METHYL-N'-NITRO-N-NITROSOGUANIDINE, 70-25-7, N-ETHYL-N-HYDROXYETHYLNITROSAMINE, 13147-25-6, N-METHYLBENZYLNITROSAM, Dose [Inhibitor]: 0, 1% IN DIET FOR 36 WK (STUDY DURATION: 36 WK), Route [Inhibitor]: ORAL, Species: RAT, Strain/Sex: F344/MALE, Target Tissue: Type of Lesion: ESOPHAGUS: PAPILLOMA, Dose [Carcinogen]: 100 MG/KG BW MNNG ONCE, 750 MG/KG BW EHEN ONCE, 0.5 MG/KG BW MBN TWICE, 40 MG/KG BW DMH 4 TIMES, 0.05% DBN IN DRINKING W) 3/18 (17%), 15/18 (83%), -388%, p<0.001. Further, the “tumour outcome (control, treated, inhibition, significance)” value (Carcinogen: N-METHYL-N'-NITRO-N-NITROSOGUANIDINE, 70-25-7, N-ETHYL-N-HYDROXYETHYLNITROSAMINE, 13147-25-6, N-METHYLBENZYLNITROSAM, Carcinogen: N-METHYL-N'-NITRO-N-NITROSOGUANIDINE, 70-25-7, N-ETHYL-N-HYDROXYETHYLNITROSAMINE, 13147-25-6, N-METHYLBENZYLNITROSAM, Dose [Inhibitor]: 0, 1% IN DIET FOR 36 WK (STUDY DURATION: 36 WK), Route [Inhibitor]: ORAL, Species: RAT, Strain/Sex: F344/MALE, Target Tissue: Type of Lesion: FORESTOMACH: PAPILLOMA, Dose [Carcinogen]: 100 MG/KG BW MNNG ONCE, 750 MG/KG BW EHEN ONCE, 0.5 MG/KG BW MBN TWICE, 40 MG/KG BW DMH 4 TIMES, 0.05% DBN IN DRINKING W) was 6/18 (33%), 15/18 (83%), -151%, p<0.01 and the “tumour outcome (control, treated, inhibition, significance)” value (Carcinogen: N-METHYL-N'-NITRO-N-NITROSOGUANIDINE, 70-25-7, N-ETHYL-N-HYDROXYETHYLNITROSAMINE, 13147-25-6, N-METHYLBENZYLNITROSAM, Carcinogen: N-METHYL-N'-NITRO-N-NITROSOGUANIDINE, 70-25-7, N-ETHYL-N-HYDROXYETHYLNITROSAMINE, 13147-25-6, N-METHYLBENZYLNITROSAM, Dose [Inhibitor]: 0, 1% IN DIET FOR 36 WK (STUDY DURATION: 36 WK), Route [Inhibitor]: ORAL, Species: RAT, Strain/Sex: F344/MALE, Target Tissue: Type of Lesion: KIDNEY: RENAL CELL TUMOR, Dose [Carcinogen]: 100 MG/KG BW MNNG ONCE, 750 MG/KG BW EHEN ONCE, 0.5 MG/KG BW MBN TWICE, 40 MG/KG BW DMH 4 TIMES, 0.05% DBN IN DRINKING W) was 8/18 (44%), 5/18 (28%), 36%, not calculated.
